# Measured values: PMC6781194, “Synthesis, cytotoxicities, and carbonic anhydrase inhibition potential of 6-(3-aryl-2-propenoyl)-2(3H)-benzoxazolones” (Journal of Enzyme Inhibition and Medicinal Chemistry, 2019)
# Assays:
# HSC-2 = assay: Cytotoxic activity (MTT) against OSCC cell line HSC-2; type: cell-based, human; conditions: for CC50: Homo sapiens, HSC-2, 48 h incubation, MTT, triplicate; for PSE (B/A2)×100: potency-selectivity expression = mean CC50 normal cells / (CC50 HSC-2)^2 × 100; for TS (B/A): tumour specificity = mean CC50 normal cells (HGF, HPLF) / CC50 HSC-2; for increase in cytotoxicity compared to non-substituted compound 1: HSC-2 CC50 ratio versus compound 1; for increase in TS (selectivity) compared to compound 1: TS ratio versus compound 1
# Experimental: (§1) Human normal oral mesenchymal cells, gingival fibroblast (HGF), and periodontal ligament fibroblast (HPLF) established from the first premolar tooth extracted from the lower jaw of a child[47] and human OSCC cell line HSC-2 (derived from tongue), purchased from Riken Cell Bank (Tsukuba, Japan), were cultured at 37 °C in DMEM supplemented with 10% heat-inactivated FBS, 100 units/ml penicillin G, and 100 µg/ml streptomycin sulphate under a humidified 5% CO2 atmosphere. HGF and HPLF cells at 10–18 population doubling levels were used in this study.
# (§2) Cells were inoculated at 2.5 × 10^3 cells/0.1 ml in a 96-microwell plate (Becton Dickinson Labware, Franklin Lakes, NJ). After 48 h, the medium was replaced with 0.1 ml of fresh medium containing different concentrations of single test compounds. Cells were incubated further for 48 h and the relative viable cell number was then determined by the MTT method[22]^,[48–54]. All benzoxazolone derivatives were dissolved with DMSO at the concentration of 40 mM and stored until use. Control cells were treated with the same amounts of DMSO ([…], 0.03125, 0.0625, 0.125, 0.25, 0.5, and 1.0%) and the cell damage induced by DMSO was subtracted from that induced by test agents. In brief, cells were stained with MTT reagent, dissolved with DMSO, and the absorbance of the MTT-stained cell lysate was measured at 560 nm, using a microplate reader (Infinite F 50R, TECAN, Kawasaki, Japan). […]
# (§3) Tumour specificity (TS) was calculated using the following equation: TS = Mean CC50 against three normal oral cell types (HGF, HPLF)/Mean CC50 against four OSCC cell lines (HSC-2). Since HGF cells were derived from gingival tissue, the relative sensitivity of these cells was also compared (as mean CC50 against HGF/mean CC50 against HSC-2).
# hCA II = hCA II (Homo sapiens, UniProt P00918); assay: Carbonic anhydrase inhibition, hCA II; type: biochemical; conditions: for Ki: Lineweaver–Burk, three concentrations
# Experimental: (§4) The purification of cytosolic CA isoenzymes (CA I and CA II) was previously described with a simple one-step method by a Sepharose-4B-L tyrosine-sulphanilamide affinity chromatography[42]^,[53]^,[55–58]. The protein quantity in the column effluents was determined spectrophotometrically at 280 nm. Sodium dodecyl sulphate-polyacrylamide gel electrophoresis (SDS-PAGE) was applied with a Bio-Rad Mini Gel system Mini-PROTEIN system (Bio-Rad Laboratories, Inc., Shanghai, China) after purification of both CA isoenzymes. Briefly, it was performed in acrylamide for the running (10%) and the stacking gel (3%) contained SDS (0.1%), respectively. […] Bovine serum albumin was used as a standard protein. The IC50 values were obtained from activity (%) versus compounds plots. For the calculation of Ki values, three different concentrations were used. The Lineweaver–Burk curves were drawn and calculations were realised as before.
# [1] = Cytotoxic activity (MTT) against normal periodontal ligament fibroblast HPLF; type: cell-based; conditions: human, HPLF normal periodontal ligament fibroblasts, HPLF normal oral cells, 48 h incubation
# Experimental: as §1, §2
# hCA I = hCA I (Homo sapiens, UniProt P00915); assay: Carbonic anhydrase inhibition, hCA I; type: biochemical; conditions: for Ki: Lineweaver–Burk, three concentrations
# hCA I, sequence (P00915 whole entry): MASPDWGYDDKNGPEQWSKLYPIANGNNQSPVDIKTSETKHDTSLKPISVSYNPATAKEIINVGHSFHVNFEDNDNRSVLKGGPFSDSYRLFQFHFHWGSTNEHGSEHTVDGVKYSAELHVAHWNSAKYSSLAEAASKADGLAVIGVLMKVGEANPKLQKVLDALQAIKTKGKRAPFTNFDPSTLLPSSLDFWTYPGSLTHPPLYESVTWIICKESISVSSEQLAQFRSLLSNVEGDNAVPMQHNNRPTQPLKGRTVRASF
# Experimental: as §4
# [2] = Cytotoxic activity (MTT) against normal gingival fibroblast HGF; type: cell-based; conditions: human, HGF normal gingival fibroblasts, HGF normal oral cells, 48 h incubation
# Experimental: as §1, §2
# [3] = Cytotoxic activity (MTT), mean over human normal oral cells; type: cell-based; conditions: HGF and HPLF normal oral fibroblasts (mean of both), read-out: CC50 Human normal oral cells Mean (B)
# Experimental: as §1, §2, §3
Structure (SMILES),CC50 (HSC-2) [µM],PSE (B/A2)×100 (HSC-2),TS (B/A) (HSC-2),IC50 (hCA II) [µM],Ki (hCA II) [µM],melting point [°C],CC50 at 48 h [1] [µM],IC50 (hCA I) [µM],Ki (hCA I) [µM],CC50 at 48 h [2] [µM],CC50 at 48 h [3] [µM],increase in cytotoxicity compared to non-substituted compound 1 (HSC-2) [times],increase in TS (selectivity) compared to compound 1 (HSC-2) [times],times more cytotoxic than 5-FU (HSC-2; HSC-2 CC50 ratio versus 5-FU) [times],times low cytotoxic than DXR (HSC-2; HSC-2 CC50 ratio versus DXR) [times],PSE value higher than 5-FU (HSC-2; PSE ratio versus 5-FU),PSE value compared to compound 1 (HSC-2; PSE ratio versus compound 1) [times],"cytotoxicity reduced compared to compound 1 (HSC-2; HSC-2 CC50 ratio versus compound 1, decrease) [times]"
"O=C(C=Cc1ccccc1)c1ccc2[nH]c(=O)oc2c1 [Compound 1, 6-(3-Phenyl-2-propenoyl)-3H-benzoxazol-2-one]",22.1,16,3.5,40.5,36.2 ± 13.3,230 to 232,83.3,58.7,70.6 ± 6.67,71,77.2,,,,,,,
"Cc1ccc(C=CC(=O)c2ccc3[nH]c(=O)oc3c2)cc1 [Compound 2, 6-[3-(4-Metyhlphenyl)-2-propenoyl]-3H-benzoxazol-2-one]",10.1,94,9.5,45.6,32.1 ± 6.6,258 to 260,105,33,38.8 ± 1.93,87.7,96.5,2.2,2.7,,,,,
"COc1ccc(C=CC(=O)c2ccc3[nH]c(=O)oc3c2)cc1 [Compound 3, 6-[3-(4-Methoxyphenyl)-2-propenoyl]-3H-benzoxazol-2-one]",14.5,41,5.9,48.1,36.2 ± 10.3,210 to 213,84,47.5,30.5 ± 11.3,88.3,86.2,1.5,,,,,,
"O=C(C=Cc1ccc(C(F)(F)F)cc1)c1ccc2[nH]c(=O)oc2c1 [Compound 4, 6-[3-(4-Trifluoromethylphenyl)-2-propenoyl]-3H-benzoxazol-2-one]",4,159,6.4,45,19.2 ± 2.19,,26.3,29.7,30.8 ± 3.49,24.7,25.5,5.5,1.8,9.4,8,about 2 times,9.9,
"O=C(C=Cc1cccc(O)c1)c1ccc2[nH]c(=O)oc2c1 [Compound 5, 6-[3-(3-Hydroxyphenyl)-2-propenoyl]-3H-benzoxazol-2-one]",6.9,111,7.7,48.5,35.2 ± 8.36,277 to 279,50.3,69.6,63 ± 15.4,55.4,52.9,,,,,,,
"O=c1[nH]cc(F)c(=O)[nH]1 [Compound 5-FU, 5-Fluorouracil, reference compound]",37.7,80.7,,,,,> 1000,,,> 1000,> 1000,,,,,,,
"CC(C)c1ccc(C=CC(=O)c2ccc3[nH]c(=O)oc3c2)cc1 [Compound 6, 6-[3-(4-Isopropylphenyl)-2-propenoyl]-3H-benzoxazol-2-one]",10.1,64,6.4,30.1,33.3 ± 6.15,220 to 222,76,52.1,37.1 ± 7.77,53,64.5,2.2,1.8,,,,,
"CN(C)c1ccc(C=CC(=O)c2ccc3[nH]c(=O)oc3c2)cc1 [Compound 7, 6-[3-(4-Dimethylaminophenyl)-2-propenoyl]-3H-benzoxazol-2-one]",30.2,8,2.4,29.7,10.8 ± 2.14,248 to 250,70,40.3,52.3 ± 9.97,76.3,73.2,,,,,,,1.4
"O=C(C=Cc1ccc(OCc2ccccc2)cc1)c1ccc2[nH]c(=O)oc2c1 [Compound 8, 6-[3-(4-Benzyloxyphenyl)-2-propenoyl]-3H-benzoxazol-2-one]",11.9,46,5.5,18.1,38 ± 2.36,243 to 245,32.7,57.7,28.4 ± 6.63,98,65.3,1.9,,,,,,
"COc1cccc2c1C(=O)c1c(O)c3c(c(O)c1C2=O)C[C@@](O)(C(=O)CO)C[C@@H]3O[C@H]1C[C@H](N)[C@H](O)[C@H](C)O1 [DXR, Doxorubicin, reference compound]",0.5,>2030,,,,,> 10,,,0.7,> 5.3,,,,,,,
